Test results as given in US20230290452A1, “Electronic Health Record (EHR)-Based Classifier for Acute Respiratory Distress Syndrome (ARDS) Subtyping” (Endpoint Health Inc., priority 2020, published 2023).

Tests used:
Format in all cases: in vivo, human
COVID-19 patients = test: CoDEX study dataset, dexamethasone vs placebo by Model C.4 subphenotype
Description: The dataset from the CoDEX study was used for analysis. The CoDEX study involved treating COVID-19 patients with dexamethasone. K-means clustering was applied using Model C.4 described above in Table 70 and patients were separated into two clusters assigned to Subphenotype A and Subphenotype B. Tables 75A and 75B show the corresponding results.

ARDS patients [1] = test: ARMA-KARMA-LARMA study dataset, lisofylline and ketoconazole vs placebo by subphenotype; details: for Mortality: ARMA-KARMA-LARMA; for Dead 90: 1 0, Percent: mortality
Description: The dataset from the ARMA-KARMA-LARMA study was used for analysis. Interventions in the study included lisofylline and ketoconazole.

ARDS patients [2] = test: LASRS study dataset, methylprednisolone vs placebo by Model C.4 subphenotype; details: for Dead 90: 1 0, Frequency: dead at 90 days; for Mortality: cohort receiving methylprednisolone
Description: The dataset from the LASRS study was used for analysis. The LASRS study involved administration of corticosteroids, specifically methylprednisolone. K-means clustering was applied using Model C.4 described above in Table 70 and patients were separated into two subphenotypes based on the K-means cluster. Overall mortality was 40% in Subphenotype B and 28.57% in Subphenotype A (p = 0.3287). Within Subphenotype B, mortality rates were 40% regardless of whether the patient received methylprednisolone or a placebo; however, in Subphenotype A, mortality was 50% in the cohort receiving methylprednisolone, compared with 9.09% in the placebo cohort (p = 0.0382).

[3] = Patients administered lisofylline (title), Subphenotype A
[4] = Patients administered lisofylline (title), Subphenotype B
[5] = Subphenotype A patients, not dead at 90 days
[6] = Subphenotype B patients, not dead at 90 days
[7] = active arm vs placebo, Subphenotype A patients
[8] = active arm vs placebo, Subphenotype B patients

With `C[C@@H]1C[C@H]2[C@@H]3CCC4=CC(=O)C=C[C@]4(C)[C@@]3(F)[C@@H](O)C[C@]2(C)[C@@]1(O)C(=O)CO` [dexamethasone] the “28-day Mortality” value (COVID-19 patients; Subphenotype A) was 54.72%, the “Increase in number of vent free days versus placebo” value (COVID-19 patients; Subphenotype A) was 45% and the “Vent Free Days” value (COVID-19 patients; Subphenotype A) was 8.81 days. The “28-day Mortality” value (COVID-19 patients; Subphenotype B) was 62.50%, the “Increase in number of ventilator free days versus placebo” value (COVID-19 patients; Subphenotype B) was 101% and the “Vent Free Days” value (COVID-19 patients; Subphenotype B) was 5.09 days.
For `C[C@@H](O)CCCCn1c(=O)c2c(ncn2C)n(C)c1=O` [lisofylline], the Mortality (ARDS patients [1]; Subphenotype A, patients who received lisofylline) was 31.4%, the Mortality (ARDS patients [1]; Subphenotype B, patients who got lisofylline) was 40% and the “Dead 90: 0 0, Frequency” value (ARDS patients [1]; [3]) was 36. The “Dead 90: 0 0, Percent” value (ARDS patients [1]; [3]) was 72%, the “Dead 90: 1 0, Frequency” value (ARDS patients [1]; [3]) was 14 and the “Dead 90: 1 0, Percent” value (ARDS patients [1]; [3]) was 28%. The “Dead 90: 0 0, Frequency” value (ARDS patients [1]; [4]) was 51, the “Dead 90: 0 0, Percent” value (ARDS patients [1]; [4]) was 72.86% and the “Dead 90: 1 0, Frequency” value (ARDS patients [1]; [4]) was 19. For the same molecule, the “Dead 90: 1 0, Percent” value (ARDS patients [1]; [4]) was 27.14%.
`C[C@H]1C[C@@H]2[C@H]([C@@H](O)C[C@@]3(C)[C@H]2CC[C@]3(O)C(=O)CO)[C@@]2(C)C=CC(=O)C=C12` [methylprednisolone] was tested, and the “Dead 90: 1 0, Frequency” value (ARDS patients [2]; Subphenotype A patients) was 5, the “Dead 90: 1 0, Row Percent” value (ARDS patients [2]; Subphenotype A patients, mortality) was 50% and the “Dead 90: 0 0, Frequency” value (ARDS patients [2]; [5]) was 5. The “Dead 90: 0 0, Row Percent” value (ARDS patients [2]; [5]) was 50%, the Mortality (ARDS patients [2]; Subphenotype A) was 50% and the “Dead 90: 1 0, Frequency” value (ARDS patients [2]; Subphenotype B patients) was 18. For the same molecule, the “Dead 90: 1 0, Percent” value (ARDS patients [2]; Subphenotype B patients, mortality) was 40%, the “Dead 90: 0 0, Frequency” value (ARDS patients [2]; [6]) was 27 and the “Dead 90: 0 0, Percent” value (ARDS patients [2]; [6]) was 60%. The Mortality (ARDS patients [2]; Subphenotype B) was 40%, the “Dead 90: 0 0, Frequency” value (ARDS patients [1]; [7]) was 24 and the “Dead 90: 0 0, Percent” value (ARDS patients [1]; [7]) was 68.57%. For the same molecule, the “Dead 90: 1 0, Frequency” value (ARDS patients [1]; [7]) was 11, the “Dead 90: 1 0, Percent” value (ARDS patients [1]; [7]) was 31.43% and the “Dead 90: 0 0, Frequency” value (ARDS patients [1]; [8]) was 15. The “Dead 90: 0 0, Percent” value (ARDS patients [1]; [8]) was 60%, the “Dead 90: 1 0, Frequency” value (ARDS patients [1]; [8]) was 10 and the “Dead 90: 1 0, Percent” value (ARDS patients [1]; [8]) was 40%.
